From ChEMBL document CHEMBL3865846, “Synthesis and biological evaluation of ricinoleic acid-based lipoamino acid derivatives” (Bioorg Med Chem Lett, 2016)
≈ marks a conversion by molar mass, not a printed value. Each block holds one molecule with its values, some of them ahead of it.

Tests used:
Type in all cases: functional
Candida albicans [1] = test: Antimicrobial activity against Candida albicans MTCC227 measured after 24 hrs by well-diffusion method; settings: MTCC227, 24 h
Pseudomonas aeruginosa = test: Antimicrobial activity against Pseudomonas aeruginosa MTCCM2453 measured after 24 hrs by well-diffusion method; settings: MTCCM2453, 24 h
Staphylococcus aureus [2] = test: Antimicrobial activity against Staphylococcus aureus MTCC96 measured after 24 hrs by well-diffusion method; settings: MTCC96, 24 h
Candida albicans [3] = test: Antimicrobial activity against Candida albicans MTCC3018 measured after 24 hrs by well-diffusion method; settings: MTCC3018, 24 h
Escherichia coli = test: Antimicrobial activity against Escherichia coli MTCC739 measured after 24 hrs by well-diffusion method; settings: MTCC739, 24 h
Candida albicans [4] = test: Antimicrobial activity against Candida albicans MTCC3017 measured after 24 hrs by well-diffusion method; settings: MTCC3017, 24 h
Candida albicans [5] = test: Antimicrobial activity against Candida albicans MTCC1637 measured after 24 hrs by well-diffusion method; settings: MTCC1637, 24 h
Raoultella planticola = test: Antimicrobial activity against Klebsiella planticola MTCC530 measured after 24 hrs by well-diffusion method; settings: MTCC530, 24 h
Bacillus subtilis [6] = test: Antimicrobial activity against Bacillus subtilis MTCC121 measured after 24 hrs by well-diffusion method; settings: MTCC121, 24 h
Candida albicans [7] = test: Antimicrobial activity against Candida albicans MTCC7315 measured after 24 hrs by well-diffusion method; settings: MTCC7315, 24 h
Staphylococcus aureus [8] = test: Antimicrobial activity against Staphylococcus aureus MLS16 MTCC2940 measured after 24 hrs by well-diffusion method; settings: MLS16 MTCC2940, 24 h
Candida albicans [9] = test: Antimicrobial activity against Candida albicans MTCC4748 measured after 24 hrs by well-diffusion method; settings: MTCC4748, 24 h
Candida albicans [10] = test: Antimicrobial activity against Candida albicans MTCC183 measured after 24 hrs by well-diffusion method; settings: MTCC183, 24 h
Micrococcus luteus [11] = test: Antimicrobial activity against Micrococcus luteus MTCC2470 measured after 24 hrs by well-diffusion method; settings: MTCC2470, 24 h
Candida albicans [12] = test: Antimicrobial activity against Candida albicans MTCC854 measured after 24 hrs by well-diffusion method; settings: MTCC854, 24 h
Candida albicans [13] = test: Antimicrobial activity against Candida albicans MTCC3958 measured after 24 hrs by well-diffusion method; settings: MTCC3958, 24 h
Pichia kudriavzevii [14] = test: Antimicrobial activity against Candida krusei MTCC3020 measured after 24 hrs by well-diffusion method; settings: MTCC3020, 24 h
Nakaseomyces glabratus [15] = test: Antimicrobial activity against Candida glabrata MTCC3019 measured after 24 hrs by well-diffusion method; settings: MTCC3019, 24 h
Pichia sporocuriosa = test: Antimicrobial activity against Issatchenkia hanoiensis MTCC4755 measured after 24 hrs by well-diffusion method; settings: MTCC4755, 24 h
Candida parapsilosis [16] = test: Antimicrobial activity against Candida parapsilosis MTCC1744 measured after 24 hrs by well-diffusion method; settings: Lodderomyces parapsilosis, MTCC1744, 24 h
Staphylococcus aureus [17] = test: Anti-biofilm activity against Staphylococcus aureus MTCC96 measured after 24 hrs by crystal violet-staining based method; settings: MTCC96, 24 h
Pichia kudriavzevii [18] = test: Anti-biofilm activity against Candida krusei MTCC3020 measured after 24 hrs by crystal violet-staining based method; settings: MTCC3020, 24 h
Candida albicans [19] = test: Fungicidal activity against Candida albicans MTCC3018 measured after 24 hrs; settings: MTCC3018, 24 h
Candida albicans [20] = test: Fungicidal activity against Candida albicans MTCC227 measured after 24 hrs; settings: MTCC227, 24 h
Candida albicans [21] = test: Fungicidal activity against Candida albicans MTCC4748 measured after 24 hrs; settings: MTCC4748, 24 h
Bacillus subtilis [22] = test: Anti-biofilm activity against Bacillus subtilis MTCC121 measured after 24 hrs by crystal violet-staining based method; settings: MTCC121, 24 h
Nakaseomyces glabratus [23] = test: Fungicidal activity against Candida glabrata MTCC3019 measured after 24 hrs; settings: MTCC3019, 24 h
Candida albicans [24] = test: Fungicidal activity against Candida albicans MTCC1637 measured after 24 hrs; settings: MTCC1637, 24 h
Micrococcus luteus [25] = test: Bactericidal activity against Micrococcus luteus MTCC2470 measured after 24 hrs; settings: MTCC2470, 24 h
[Candida] aaseri = Fungicidal activity against Candida aaseri MTCC1962 measured after 24 hrs; settings: Yamadazyma aaseri, MTCC1962, 24 h
Staphylococcus aureus [26] = test: Bactericidal activity against Staphylococcus aureus MTCC96 measured after 24 hrs; settings: MTCC96, 24 h
Bacillus subtilis [27] = test: Bactericidal activity against Bacillus subtilis MTCC121 measured after 24 hrs; settings: MTCC121, 24 h
Micrococcus luteus [28] = test: Anti-biofilm activity against Micrococcus luteus MTCC2470 measured after 24 hrs by crystal violet-staining based method; settings: MTCC2470, 24 h
Staphylococcus aureus [29] = test: Bactericidal activity against Staphylococcus aureus MLS16 MTCC2940 measured after 24 hrs; settings: MLS16 MTCC2940, 24 h
Candida parapsilosis [30] = test: Fungicidal activity against Candida parapsilosis MTCC1744 measured after 24 hrs; settings: Lodderomyces parapsilosis, MTCC1744, 24 h
Candida albicans [31] = test: Fungicidal activity against Candida albicans MTCC7315 measured after 24 hrs; settings: MTCC7315, 24 h
Candida albicans [32] = test: Fungicidal activity against Candida albicans MTCC183 measured after 24 hrs; settings: MTCC183, 24 h
Staphylococcus aureus [33] = test: Anti-biofilm activity against Staphylococcus aureus MLS16 MTCC2940 measured after 24 hrs by crystal violet-staining based method; settings: MLS16 MTCC2940, 24 h
Candida albicans [34] = test: Fungicidal activity against Candida albicans MTCC3958 measured after 24 hrs; settings: MTCC3958, 24 h
Candida albicans [35] = test: Fungicidal activity against Candida albicans MTCC854 measured after 24 hrs; settings: MTCC854, 24 h
Pichia kudriavzevii [36] = test: Fungicidal activity against Candida krusei MTCC3020 measured after 24 hrs; settings: MTCC3020, 24 h

MIC (Candida albicans [1]): > 125 µg/mL
MIC (Pseudomonas aeruginosa): > 125 µg/mL
MIC (Staphylococcus aureus [2]): > 125 µg/mL
MIC (Candida albicans [3]): > 125 µg/mL
MIC (Escherichia coli): > 125 µg/mL
MIC (Candida albicans [4]): > 125 µg/mL
MIC (Candida albicans [5]): > 125 µg/mL
MIC (Bacillus subtilis [6]): > 125 µg/mL
MIC (Candida albicans [7]): > 125 µg/mL
MIC (Staphylococcus aureus [8]): > 125 µg/mL
MIC (Candida albicans [9]): > 125 µg/mL
MIC (Candida albicans [10]): > 125 µg/mL
MIC (Micrococcus luteus [11]): > 125 µg/mL
MIC (Candida albicans [12]): > 125 µg/mL
MIC (Candida albicans [13]): > 125 µg/mL
Structure (SMILES): CCCCCCC(C/C=C\CCCCCCCC(=O)OC)NC(=O)[C@@H](N)Cc1c[nH]c2ccccc12 (stereo partly specified)
MIC (Raoultella planticola): > 125 µg/mL

MIC (Candida albicans [1]): 7.8 µg/mL (≈ 18.7 µM)
MIC (Candida albicans [3]): 7.8 µg/mL (≈ 18.7 µM)
MIC (Candida albicans [4]): 7.8 µg/mL (≈ 18.7 µM)
MIC (Pichia kudriavzevii [14]): 7.8 µg/mL (≈ 18.7 µM)
MIC (Candida albicans [5]): 7.8 µg/mL (≈ 18.7 µM)
MIC (Candida albicans [7]): 7.8 µg/mL (≈ 18.7 µM)
MIC (Candida albicans [9]): 7.8 µg/mL (≈ 18.7 µM)
MIC (Nakaseomyces glabratus [15]): 7.8 µg/mL (≈ 18.7 µM)
MIC (Candida albicans [10]): 7.8 µg/mL (≈ 18.7 µM)
MIC (Pichia sporocuriosa): 7.8 µg/mL (≈ 18.7 µM)
MIC (Candida parapsilosis [16]): 7.8 µg/mL (≈ 18.7 µM)
MIC (Candida albicans [12]): 7.8 µg/mL (≈ 18.7 µM)
MIC (Candida albicans [13]): 7.8 µg/mL (≈ 18.7 µM)
Structure (SMILES): Clc1ccc(COC(Cn2ccnc2)c2ccc(Cl)cc2Cl)c(Cl)c1 (stereo unspecified) [MICONAZOLE]

IC50 (Staphylococcus aureus [17]): 2.1 µg/mL (≈ 5.7 µM)
MIC (Candida albicans [1]): 7.8 µg/mL (≈ 21.2 µM)
IC50 (Pichia kudriavzevii [18]): 4.1 µg/mL (≈ 11.1 µM)
MIC (Pseudomonas aeruginosa): > 125 µg/mL
MIC (Staphylococcus aureus [2]): 3.9 µg/mL (≈ 10.6 µM)
MIC (Candida albicans [3]): 7.8 µg/mL (≈ 21.2 µM)
MIC (Escherichia coli): > 125 µg/mL
MIC (Candida albicans [4]): 7.8 µg/mL (≈ 21.2 µM)
MIC (Pichia kudriavzevii [14]): 7.8 µg/mL (≈ 21.2 µM)
IC50 (Bacillus subtilis [22]): 2.9 µg/mL (≈ 7.87 µM)
MIC (Candida albicans [5]): 7.8 µg/mL (≈ 21.2 µM)
MIC (Bacillus subtilis [6]): 7.8 µg/mL (≈ 21.2 µM)
MIC (Candida albicans [7]): 7.8 µg/mL (≈ 21.2 µM)
MIC (Staphylococcus aureus [8]): 7.8 µg/mL (≈ 21.2 µM)
MIC (Candida albicans [9]): 7.8 µg/mL (≈ 21.2 µM)
MIC (Nakaseomyces glabratus [15]): 7.8 µg/mL (≈ 21.2 µM)
MIC (Candida albicans [10]): 7.8 µg/mL (≈ 21.2 µM)
MIC (Pichia sporocuriosa): 7.8 µg/mL (≈ 21.2 µM)
MIC (Micrococcus luteus [11]): 3.9 µg/mL (≈ 10.6 µM)
IC50 (Micrococcus luteus [28]): 1.9 µg/mL (≈ 5.16 µM)
MIC (Candida parapsilosis [16]): 7.8 µg/mL (≈ 21.2 µM)
MIC (Candida albicans [12]): 7.8 µg/mL (≈ 21.2 µM)
IC50 (Staphylococcus aureus [33]): 4.1 µg/mL (≈ 11.1 µM)
MIC (Candida albicans [13]): 7.8 µg/mL (≈ 21.2 µM)
Structure (SMILES): CCCCCCC(C/C=C\CCCCCCCC(=O)OC)NC(=O)CN (stereo unspecified)
MFC (Candida albicans [19]): 7.8 to 31.2 µg/mL (≈ 21.2 to 84.7 µM)
MFC (Candida albicans [20]): 7.8 to 31.2 µg/mL (≈ 21.2 to 84.7 µM)
MFC (Candida albicans [21]): 7.8 to 31.2 µg/mL (≈ 21.2 to 84.7 µM)
MFC (Nakaseomyces glabratus [23]): 7.8 to 31.2 µg/mL (≈ 21.2 to 84.7 µM)
MIC (Raoultella planticola): > 125 µg/mL
MFC (Candida albicans [24]): 7.8 to 31.2 µg/mL (≈ 21.2 to 84.7 µM)
MBC (Micrococcus luteus [25]): 7.8 µg/mL (≈ 21.2 µM)
MFC ([Candida] aaseri): 7.8 to 31.2 µg/mL (≈ 21.2 to 84.7 µM)
MBC (Staphylococcus aureus [26]): 7.8 µg/mL (≈ 21.2 µM)
MBC (Bacillus subtilis [27]): 7.8 µg/mL (≈ 21.2 µM)
MBC (Staphylococcus aureus [29]): 7.8 µg/mL (≈ 21.2 µM)
MFC (Candida parapsilosis [30]): 7.8 to 31.2 µg/mL (≈ 21.2 to 84.7 µM)
MFC (Candida albicans [31]): 7.8 to 31.2 µg/mL (≈ 21.2 to 84.7 µM)
MFC (Candida albicans [32]): 7.8 to 31.2 µg/mL (≈ 21.2 to 84.7 µM)
MFC (Candida albicans [34]): 7.8 to 31.2 µg/mL (≈ 21.2 to 84.7 µM)
MFC (Candida albicans [35]): 7.8 to 31.2 µg/mL (≈ 21.2 to 84.7 µM)
MFC (Pichia kudriavzevii [36]): 7.8 µg/mL (≈ 21.2 µM)

MIC (Candida albicans [1]): 31.2 µg/mL (≈ 76.4 µM)
MIC (Pseudomonas aeruginosa): > 125 µg/mL
MIC (Staphylococcus aureus [2]): 15.6 µg/mL (≈ 38.2 µM)
MIC (Candida albicans [3]): 31.2 µg/mL (≈ 76.4 µM)
MIC (Escherichia coli): > 125 µg/mL
MIC (Candida albicans [4]): 31.2 µg/mL (≈ 76.4 µM)
MIC (Candida albicans [5]): 31.2 µg/mL (≈ 76.4 µM)
MIC (Bacillus subtilis [6]): 15.6 µg/mL (≈ 38.2 µM)
MIC (Candida albicans [7]): 31.2 µg/mL (≈ 76.4 µM)
MIC (Staphylococcus aureus [8]): 31.2 µg/mL (≈ 76.4 µM)
MIC (Candida albicans [9]): 31.2 µg/mL (≈ 76.4 µM)
MIC (Candida albicans [10]): 31.2 µg/mL (≈ 76.4 µM)
MIC (Micrococcus luteus [11]): 15.6 µg/mL (≈ 38.2 µM)
MIC (Candida albicans [12]): 31.2 µg/mL (≈ 76.4 µM)
MIC (Candida albicans [13]): 31.2 µg/mL (≈ 76.4 µM)
Structure (SMILES): CCCCCCC(C/C=C\CCCCCCCC(=O)OC)NC(=O)[C@@H]1CCCN1 (stereo partly specified)
MIC (Raoultella planticola): > 125 µg/mL
MBC (Micrococcus luteus [25]): 31.2 µg/mL (≈ 76.4 µM)
MBC (Staphylococcus aureus [26]): 31.2 µg/mL (≈ 76.4 µM)
MBC (Bacillus subtilis [27]): 31.2 µg/mL (≈ 76.4 µM)
MBC (Staphylococcus aureus [29]): 31.2 µg/mL (≈ 76.4 µM)

Structure (SMILES): O=C(O)c1cn(C2CC2)c2cc(N3CCNCC3)c(F)cc2c1=O [CIPROFLOXACIN]
MIC (Pseudomonas aeruginosa): 0.9 µg/mL (≈ 2.72 µM)
MIC (Staphylococcus aureus [2]): 0.9 µg/mL (≈ 2.72 µM)
MIC (Escherichia coli): 0.9 µg/mL (≈ 2.72 µM)
MIC (Raoultella planticola): 0.9 µg/mL (≈ 2.72 µM)
MIC (Bacillus subtilis [6]): 0.9 µg/mL (≈ 2.72 µM)
MIC (Staphylococcus aureus [8]): 0.9 µg/mL (≈ 2.72 µM)
MBC (Micrococcus luteus [25]): 0.7 to 1.9 µg/mL (≈ 2.11 to 5.73 µM)
MBC (Staphylococcus aureus [26]): 0.7 to 1.9 µg/mL (≈ 2.11 to 5.73 µM)
MBC (Bacillus subtilis [27]): 0.7 to 1.9 µg/mL (≈ 2.11 to 5.73 µM)
MIC (Micrococcus luteus [11]): 0.9 µg/mL (≈ 2.72 µM)
MBC (Staphylococcus aureus [29]): 0.7 to 1.9 µg/mL (≈ 2.11 to 5.73 µM)
